Assay results: patent publication US6071709A, “Nerve growth factor/receptor complex” (The United States of America as represented by the …, priority 1992, dated 2000)

Tested on: trk transcripts
Assay: Northern transfer analysis of trk transcripts in PC12 cells with or without NGF
Assay type: cell-based, rat
Conditions: 50 ng/ml NGF, 48 hr
Method: RNA preparation and Northern transfer analysis was performed as described (Martin-Zanca et al., (1990a)). Cells were treated with 50 ng/ml NGF(+) (Boehringer Mannheim Biochemicals) and were harvested 48 hr later after differentiation had occurred. 20 μg of total RNA was loaded per lane, and the filter was hybridized with a trk (Martin-Zanca et al., (1990)) or trkB (Klein et al., (1990a)) specific probe.
The trk gene is a member of a gene family of TK receptors that includes the related gene trkb. To determine if trk is transcribed in PC12 cells, the expression of trk transcripts was assayed by Northern transfer analysis with a full-length trk cDNA probe (R. Klein et al., (1990a)). PC12 cells contained trk transcripts (FIG. 7). The level of trk transcripts was not affected by the addition of NGF. To determine whether additional trk-related genes were transcribed in PC12 cells, mRNA was hybridized at low stringency with the highly conserved trk TK domain. trk transcripts have been found in LA-N-5 cells, Sy5y cells and DRG from 13.5 day or 14.5 day embryonic mice.

NGF: neurotrophic polypeptide factor, nerve growth factor; ligand of trk proto-oncogene receptor
level of trk transcripts: not affected
